Six compounds from ChEMBL document CHEMBL1201862, “PubChem BioAssay data set” (2004) can be followed below.

The target in assay [1] is Steroidogenic factor 1 (Homo sapiens, UniProt Q13285). The assay can be described thus: Counterscreen for inverse agonists of the liver receptor homolog-1 (LRH-1; NR5A2): Luminescence-based cell-based high throughput dose response assay to identify inverse agonists of the Steroidogenic Factor 1 Nuclear Receptor (SF1; NR5A1). Type of assay: functional. For orientation: A counterscreen serves to expose hits that act by an unwanted route or on another target.

In assay [2] the target is Nuclear receptor subfamily 5 group A member 2 (Homo sapiens, UniProt O00482). Type of assay: functional, cell-based.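 Note: HEK293T cells transfected with LRH-1 and a StAR promoter luciferase reporter; potency for inhibitors that lower LRH-1 driven reporter light.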
Assay [3] in a line: nonselective StAR promoter luciferase inhibitors – cell-based, luminescence, luciferase reporter, counter-screen for LRH-1 inverse agonist project, dose response (AID 651969). Type of assay: functional. (In general: In a reporter assay the amount or activity of a reporter protein is the signal.)
Assay [4] concerns the target Cytochrome P450 2D6 (Homo sapiens, UniProt P10635).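 Note: CYP2D6 member of a cytochrome P450 panel assay.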
Assay [5] deals with Adenosylmethionine-8-amino-7-oxononanoate aminotransferase (Mycobacterium tuberculosis, UniProt P9WQ81). The assay can be described thus: Mycobacterium tuberculosis BioA enzyme inhibitor Measured in Biochemical System Using Plate Reader - 2163-02_Inhibitor_Dose_CherryPick_Activity. Type of assay: functional, Mycobacterium tuberculosis UT205.
Assay [6] concerns the target T1, Cytochrome P450 1A2 (Homo sapiens, UniProt P05177).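 Note: PubChem cytochrome P450 panel assay, CYP1A2 panel member.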
T1 sequence (P05177 whole entry): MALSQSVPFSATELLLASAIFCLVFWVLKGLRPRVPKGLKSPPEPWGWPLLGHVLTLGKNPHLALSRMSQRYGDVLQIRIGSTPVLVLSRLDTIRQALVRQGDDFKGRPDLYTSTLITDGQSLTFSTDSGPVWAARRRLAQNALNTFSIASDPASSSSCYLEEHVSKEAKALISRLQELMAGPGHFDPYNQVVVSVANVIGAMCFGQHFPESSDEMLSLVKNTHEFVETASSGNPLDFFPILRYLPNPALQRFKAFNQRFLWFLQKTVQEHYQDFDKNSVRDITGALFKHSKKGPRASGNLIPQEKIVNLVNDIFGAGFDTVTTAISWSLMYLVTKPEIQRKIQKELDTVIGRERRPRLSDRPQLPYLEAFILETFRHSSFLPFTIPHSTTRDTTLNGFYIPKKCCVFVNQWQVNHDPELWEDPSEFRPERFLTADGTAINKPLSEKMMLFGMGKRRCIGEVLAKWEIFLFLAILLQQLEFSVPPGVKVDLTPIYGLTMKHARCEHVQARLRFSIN

In assay [7] the target is Cytochrome P450 3A4 (Homo sapiens, UniProt P08684).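 Note: CYP3A4 tested as one member of a cytochrome P450 panel screen.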
Assay [8] concerns the target T2, Low molecular weight phosphotyrosine protein phosphatase (Homo sapiens, UniProt P24666).
T2 sequence (P24666 whole entry): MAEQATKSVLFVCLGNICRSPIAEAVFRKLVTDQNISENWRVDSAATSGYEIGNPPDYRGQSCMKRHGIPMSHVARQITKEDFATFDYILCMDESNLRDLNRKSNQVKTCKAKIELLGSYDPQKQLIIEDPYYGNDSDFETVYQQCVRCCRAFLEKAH
Type of assay: functional. The following applies: read-out: IC50_Mean.

Assay [9] deals with T3, Tyrosine-protein phosphatase non-receptor type 22 (Homo sapiens, UniProt Q9Y2R2).
T3 sequence (Q9Y2R2 whole entry): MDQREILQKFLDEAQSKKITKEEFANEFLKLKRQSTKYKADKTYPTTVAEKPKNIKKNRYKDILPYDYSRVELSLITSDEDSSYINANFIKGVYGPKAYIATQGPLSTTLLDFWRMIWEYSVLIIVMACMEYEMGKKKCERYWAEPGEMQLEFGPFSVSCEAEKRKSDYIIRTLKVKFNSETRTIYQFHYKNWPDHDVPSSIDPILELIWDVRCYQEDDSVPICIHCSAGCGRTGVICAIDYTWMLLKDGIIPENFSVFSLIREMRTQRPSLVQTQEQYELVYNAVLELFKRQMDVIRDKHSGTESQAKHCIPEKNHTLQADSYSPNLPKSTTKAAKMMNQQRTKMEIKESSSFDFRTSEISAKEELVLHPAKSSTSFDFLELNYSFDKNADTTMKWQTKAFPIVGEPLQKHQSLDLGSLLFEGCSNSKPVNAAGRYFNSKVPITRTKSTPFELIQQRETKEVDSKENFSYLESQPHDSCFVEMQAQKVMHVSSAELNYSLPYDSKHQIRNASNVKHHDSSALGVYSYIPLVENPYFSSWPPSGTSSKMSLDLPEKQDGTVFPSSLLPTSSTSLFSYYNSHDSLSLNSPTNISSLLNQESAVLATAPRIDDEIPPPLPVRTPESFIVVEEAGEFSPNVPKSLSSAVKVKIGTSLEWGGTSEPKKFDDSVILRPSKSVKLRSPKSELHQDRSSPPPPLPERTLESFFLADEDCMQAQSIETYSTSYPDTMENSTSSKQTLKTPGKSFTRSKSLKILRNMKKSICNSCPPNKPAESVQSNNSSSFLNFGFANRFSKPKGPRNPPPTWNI
The assay can be described thus: PTPN22 enzyme inhibitors – biochemical, fluorescence, LYP catalytic domain, selectivity assay for LMPTP inhibitor project, dose response (AID 652006). Format: functional. To be noted: read-out: IC50_Mean.

For assay [10], the target named is T2, Low molecular weight phosphotyrosine protein phosphatase. Type of assay: functional. To be noted: read-out: IC50_Mean. This is another data set of the same source.
The target of assay [11] is T4, Fatty acid synthase (Homo sapiens, UniProt P49327). The assay can be described thus: inhibition of human FAS-TE enzyme activity – biochemical, kinetic fluorescence intensity, dose response (AID 624326).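 Note: rate of fluorescence rise from hydrolysis of a fluorogenic O-methyl fluorescein ester substrate.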 Type of assay: functional.
Assay [12] has as its target Mu-type opioid receptor (Homo sapiens, UniProt P35372). Type of assay: functional, cell-based.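 Note: U2OS cells with beta-arrestin recruitment to OPRM1 by beta-gal complementation.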
For assay [13], the target named is T5, Interleukin-8 (Homo sapiens, UniProt P10145).
T5 sequence (P10145 whole entry): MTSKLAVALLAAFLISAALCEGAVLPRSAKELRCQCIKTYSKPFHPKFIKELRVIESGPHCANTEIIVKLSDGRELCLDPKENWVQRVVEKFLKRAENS
The assay can be described thus: Dose Response confirmation of uHTS small molecule hits for cystic fibrosis induced NFkb Inhibitors in a TNFa-induced IL8 counterscreen. Type of assay: functional. To be noted: read-out: IC50_Mean.

The nature of assay [14]: loss of viability in HepG2 cells – cell-based, CellTiter-Glo, cherry-picked, cytotoxicity control for Shn3 inhibitor project, dose response (AID 624134). Type of assay: functional. In general terms: In ATP-based viability assays light output follows the ATP content of the culture.
The target in assay [15] is 5-hydroxytryptamine receptor 2A (Mus musculus, UniProt P35363). Format: functional, cell-based.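 Note: CHO-K1 cells with tagged receptor and beta-arrestin; agonist potency measured as compound-induced activation of the receptor.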
The target in assay [16] is T4, Fatty acid synthase. The assay can be described thus: inhibition of human FAS-TE enzyme activity – biochemical, endpoint fluorescence intensity, uHTS hits, dose response (AID 624327).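 Note: fluorescence from hydrolysis of an O-methyl fluorescein acyl ester substrate by the enzyme.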 Format: functional.
For assay [17], the system named is HEK293. The assay can be described thus: EBV LMP1 TES2 canonical NF-kB signalling blockers – cell-based, HEK293, luciferase, cherry-pick, dose response (AID 588343). Type of assay: functional. The following applies: Homo sapiens.
Assay [18] deals with T5, Interleukin-8. Briefly: Dose Response confirmation of uHTS small molecule hits for cystic fibrosis induced NFkb Inhibitors in a PAF-induced IL8 counterscreen. Format: functional. To be noted: read-out: IC50_Mean.
The nature of assay [19]: non-specific 3'UTR reporter inhibition in Clone20-Shn3RL – cell-based, Renilla luciferase, cherry-picked, counter-screen for Shn3 inhibitor project, dose response (AID 624133). Type of assay: functional.
Assay [20] is described as follows: reduction of Shn3 3'UTR-driven luciferase in osteoblasts – cell-based, Clone20 osteoblasts, firefly luciferase, cherry-picked, dose response (AID 624132).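 Note: firefly luciferase luminescence from reporter carrying the Shn3 3'UTR in osteoblasts.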 Type of assay: functional.
Assay [21] has as its target Mitochondrial peptide methionine sulfoxide reductase (Bos taurus, UniProt P54149). Type of assay: functional.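 Note: absorbance read-out, biochemical high-throughput dose-response screen for MsrA inhibitors, confirmatory; recombinant bovine MsrA coupled to E. coli TrxB with NADPH and selenocystamine; potency is for inhibitors of MsrA activity on DMSO substrate.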
A short description of assay [22]: bead-based luminescence quenchers, dual-tagged ARNT – biochemical, AlphaScreen, cherry-pick, artefact control for ARNT-TACC3 interaction inhibitor project, dose response (AID 651705).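 Note: AlphaScreen bead proximity signal that flags compounds interfering with the detection technology; potency reflects signal decrease which marks the compound as an assay artifact.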 Type of assay: functional.

Active and inactive are the calls of the source.

T4 sequence (P49327 whole entry): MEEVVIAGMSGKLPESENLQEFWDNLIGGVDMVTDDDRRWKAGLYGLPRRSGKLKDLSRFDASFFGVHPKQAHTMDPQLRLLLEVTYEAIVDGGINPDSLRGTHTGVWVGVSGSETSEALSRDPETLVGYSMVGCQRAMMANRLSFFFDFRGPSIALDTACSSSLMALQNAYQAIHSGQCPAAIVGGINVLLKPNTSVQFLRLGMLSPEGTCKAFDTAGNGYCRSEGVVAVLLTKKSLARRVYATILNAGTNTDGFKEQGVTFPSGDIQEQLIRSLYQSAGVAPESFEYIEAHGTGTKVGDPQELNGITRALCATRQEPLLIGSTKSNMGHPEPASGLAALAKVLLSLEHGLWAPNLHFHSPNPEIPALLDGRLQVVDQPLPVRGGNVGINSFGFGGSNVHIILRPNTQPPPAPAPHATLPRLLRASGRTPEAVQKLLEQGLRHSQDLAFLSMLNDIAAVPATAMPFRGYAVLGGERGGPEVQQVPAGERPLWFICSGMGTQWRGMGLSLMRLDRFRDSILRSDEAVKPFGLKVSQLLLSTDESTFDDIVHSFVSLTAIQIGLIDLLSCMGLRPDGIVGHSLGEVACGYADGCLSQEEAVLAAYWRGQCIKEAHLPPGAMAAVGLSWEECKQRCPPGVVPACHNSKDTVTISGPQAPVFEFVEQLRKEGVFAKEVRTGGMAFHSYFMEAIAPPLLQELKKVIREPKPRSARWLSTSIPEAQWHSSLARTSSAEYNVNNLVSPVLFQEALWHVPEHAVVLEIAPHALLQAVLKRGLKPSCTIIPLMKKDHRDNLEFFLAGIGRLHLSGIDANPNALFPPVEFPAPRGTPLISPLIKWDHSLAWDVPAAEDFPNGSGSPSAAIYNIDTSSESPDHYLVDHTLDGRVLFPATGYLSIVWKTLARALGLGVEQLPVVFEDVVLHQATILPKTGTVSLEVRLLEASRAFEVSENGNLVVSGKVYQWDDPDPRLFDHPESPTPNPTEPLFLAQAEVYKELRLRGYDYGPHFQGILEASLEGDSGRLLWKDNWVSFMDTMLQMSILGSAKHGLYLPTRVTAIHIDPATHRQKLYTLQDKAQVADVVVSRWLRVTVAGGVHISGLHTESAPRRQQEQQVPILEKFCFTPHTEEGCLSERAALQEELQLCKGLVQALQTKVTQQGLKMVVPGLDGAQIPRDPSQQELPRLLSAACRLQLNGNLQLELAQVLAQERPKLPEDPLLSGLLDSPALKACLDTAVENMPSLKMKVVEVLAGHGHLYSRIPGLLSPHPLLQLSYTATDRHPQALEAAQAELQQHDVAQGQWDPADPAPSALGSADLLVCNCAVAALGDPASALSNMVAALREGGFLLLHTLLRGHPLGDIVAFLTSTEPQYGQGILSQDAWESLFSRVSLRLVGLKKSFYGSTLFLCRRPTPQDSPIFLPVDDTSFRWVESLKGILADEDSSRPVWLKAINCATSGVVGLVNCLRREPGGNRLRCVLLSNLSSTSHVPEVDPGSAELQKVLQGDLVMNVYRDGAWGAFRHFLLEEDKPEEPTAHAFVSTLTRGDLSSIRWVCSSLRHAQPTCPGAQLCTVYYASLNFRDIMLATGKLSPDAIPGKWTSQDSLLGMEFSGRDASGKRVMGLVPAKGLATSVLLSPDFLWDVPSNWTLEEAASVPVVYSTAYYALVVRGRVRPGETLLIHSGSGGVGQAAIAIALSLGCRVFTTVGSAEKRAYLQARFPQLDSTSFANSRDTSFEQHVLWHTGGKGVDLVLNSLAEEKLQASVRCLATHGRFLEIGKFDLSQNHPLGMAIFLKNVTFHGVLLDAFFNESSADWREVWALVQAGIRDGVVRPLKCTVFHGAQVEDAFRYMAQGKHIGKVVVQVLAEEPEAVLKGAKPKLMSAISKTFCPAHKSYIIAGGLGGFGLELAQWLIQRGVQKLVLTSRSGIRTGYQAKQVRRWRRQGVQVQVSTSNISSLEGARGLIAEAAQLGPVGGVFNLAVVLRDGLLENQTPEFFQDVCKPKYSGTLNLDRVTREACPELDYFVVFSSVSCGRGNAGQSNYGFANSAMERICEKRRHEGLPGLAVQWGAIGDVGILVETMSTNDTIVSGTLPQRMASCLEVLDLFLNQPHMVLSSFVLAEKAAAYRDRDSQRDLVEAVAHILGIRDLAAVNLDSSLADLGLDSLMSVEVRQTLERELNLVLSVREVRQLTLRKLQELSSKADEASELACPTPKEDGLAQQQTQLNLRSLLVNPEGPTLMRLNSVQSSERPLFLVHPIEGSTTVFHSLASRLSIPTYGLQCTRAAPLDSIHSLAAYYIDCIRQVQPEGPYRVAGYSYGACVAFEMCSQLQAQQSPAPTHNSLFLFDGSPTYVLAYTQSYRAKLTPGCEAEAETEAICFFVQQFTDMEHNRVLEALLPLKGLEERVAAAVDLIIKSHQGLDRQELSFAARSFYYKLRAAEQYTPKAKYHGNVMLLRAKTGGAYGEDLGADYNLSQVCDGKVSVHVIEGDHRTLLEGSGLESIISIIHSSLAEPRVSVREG
Chain of Mu-type opioid receptor (P35372 whole entry): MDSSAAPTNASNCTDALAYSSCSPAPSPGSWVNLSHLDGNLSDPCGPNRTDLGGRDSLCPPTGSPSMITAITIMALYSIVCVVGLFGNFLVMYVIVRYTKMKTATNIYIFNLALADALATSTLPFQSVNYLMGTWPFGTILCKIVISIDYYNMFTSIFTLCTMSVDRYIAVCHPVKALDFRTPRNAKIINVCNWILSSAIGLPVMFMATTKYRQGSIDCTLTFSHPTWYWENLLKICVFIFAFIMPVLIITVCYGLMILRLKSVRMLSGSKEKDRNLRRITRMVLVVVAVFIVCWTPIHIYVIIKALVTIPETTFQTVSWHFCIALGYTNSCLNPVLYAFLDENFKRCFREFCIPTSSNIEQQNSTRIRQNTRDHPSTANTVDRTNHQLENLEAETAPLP
Chain of Cytochrome P450 2D6 (P10635 whole entry): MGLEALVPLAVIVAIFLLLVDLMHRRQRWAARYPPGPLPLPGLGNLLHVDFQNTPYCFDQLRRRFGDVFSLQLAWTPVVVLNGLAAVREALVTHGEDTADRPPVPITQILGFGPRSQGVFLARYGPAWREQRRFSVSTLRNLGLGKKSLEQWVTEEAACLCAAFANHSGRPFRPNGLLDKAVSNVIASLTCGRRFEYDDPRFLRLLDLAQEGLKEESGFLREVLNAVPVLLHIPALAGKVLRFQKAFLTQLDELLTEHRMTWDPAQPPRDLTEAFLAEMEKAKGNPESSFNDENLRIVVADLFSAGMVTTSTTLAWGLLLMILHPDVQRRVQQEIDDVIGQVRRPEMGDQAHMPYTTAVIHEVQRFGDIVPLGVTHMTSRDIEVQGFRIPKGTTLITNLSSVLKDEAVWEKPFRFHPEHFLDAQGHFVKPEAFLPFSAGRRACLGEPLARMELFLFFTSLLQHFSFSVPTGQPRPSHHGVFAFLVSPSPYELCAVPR
Chain of Adenosylmethionine-8-amino-7-oxononanoate aminotransferase (P9WQ81 whole entry): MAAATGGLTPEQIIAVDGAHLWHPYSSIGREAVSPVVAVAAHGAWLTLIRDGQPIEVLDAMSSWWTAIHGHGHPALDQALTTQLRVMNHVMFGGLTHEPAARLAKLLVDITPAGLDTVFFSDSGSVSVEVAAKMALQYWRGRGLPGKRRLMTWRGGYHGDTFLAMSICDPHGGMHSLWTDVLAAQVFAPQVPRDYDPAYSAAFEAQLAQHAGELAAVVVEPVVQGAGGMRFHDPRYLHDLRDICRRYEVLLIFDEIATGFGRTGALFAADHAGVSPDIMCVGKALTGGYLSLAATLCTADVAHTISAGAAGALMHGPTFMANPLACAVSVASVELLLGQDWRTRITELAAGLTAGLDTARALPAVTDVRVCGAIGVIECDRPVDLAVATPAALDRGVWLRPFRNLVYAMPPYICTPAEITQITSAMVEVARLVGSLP
Chain of Nuclear receptor subfamily 5 group A member 2 (O00482 whole entry): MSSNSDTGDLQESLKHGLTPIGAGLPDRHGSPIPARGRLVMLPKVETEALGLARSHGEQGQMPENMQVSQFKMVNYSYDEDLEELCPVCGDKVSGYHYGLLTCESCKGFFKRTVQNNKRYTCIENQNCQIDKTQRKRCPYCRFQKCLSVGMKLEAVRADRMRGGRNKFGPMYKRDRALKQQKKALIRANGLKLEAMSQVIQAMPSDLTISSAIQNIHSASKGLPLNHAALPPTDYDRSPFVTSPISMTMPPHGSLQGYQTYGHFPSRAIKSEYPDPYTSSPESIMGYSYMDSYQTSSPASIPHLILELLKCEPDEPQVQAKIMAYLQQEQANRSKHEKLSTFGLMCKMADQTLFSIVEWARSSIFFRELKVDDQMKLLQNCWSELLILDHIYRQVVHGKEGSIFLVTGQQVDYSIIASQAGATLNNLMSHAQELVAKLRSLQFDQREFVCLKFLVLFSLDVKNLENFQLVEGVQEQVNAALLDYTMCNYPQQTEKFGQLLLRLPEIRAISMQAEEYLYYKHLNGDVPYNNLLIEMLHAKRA
Chain of 5-hydroxytryptamine receptor 2A (P35363 whole entry): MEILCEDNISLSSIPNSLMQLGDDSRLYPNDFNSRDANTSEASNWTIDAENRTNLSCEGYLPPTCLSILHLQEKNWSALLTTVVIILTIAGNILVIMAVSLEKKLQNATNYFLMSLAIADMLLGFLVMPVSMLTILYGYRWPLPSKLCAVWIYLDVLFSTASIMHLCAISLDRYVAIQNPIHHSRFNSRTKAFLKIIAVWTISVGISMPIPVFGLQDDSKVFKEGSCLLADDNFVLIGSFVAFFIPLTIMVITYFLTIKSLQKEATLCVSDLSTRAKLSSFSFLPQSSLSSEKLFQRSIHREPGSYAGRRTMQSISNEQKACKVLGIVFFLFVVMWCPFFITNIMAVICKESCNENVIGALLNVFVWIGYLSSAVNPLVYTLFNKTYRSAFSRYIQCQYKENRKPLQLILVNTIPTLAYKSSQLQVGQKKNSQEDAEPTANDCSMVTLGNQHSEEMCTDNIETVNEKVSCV

With `CCOCC(=O)Nc1ccc(S(=O)(=O)NCCc2ccccc2)cc1`, the values for the IC50 in assay [1], in [2] and in assay [3] were 5.7 µM (active), 18.4 µM (inactive) and 35.9 µM (inactive), respectively.

As usually defined, the AC50 is the concentration at which the activity in the assay is half-maximal. For `Cc1ccc(Cc2c(C)nc3nc(SCC(=O)NCc4ccco4)nn3c2C)cc1`, the AC50 in assay [4] was 25.1 µM (inconclusive); in [5] it was 4.86 µM (active); in [6], 6.31 nM (inconclusive); in [7], 3.16 µM (inconclusive).

`COc1cccc(N2CCN(C(=O)c3ccc(CSc4nc5cc[nH]cc-5n4)cc3)CC2)c1`: the IC50 in [8] is > 80 µM (inactive); in [9], 65 µM (inactive); in assay [10] it was 14.3 µM (active).

Broadly, the EC50 is the concentration that produces a half-maximal response. With `O=[N+]([O-])c1ccc2ncnc(N3CCN(Cc4ccc5c(c4)OCO5)CC3)c2c1`, the IC50 in [11] is 843 nM (active); in assay [13] it was 40.4 µM (inactive); in assay [16], 1.39 µM (active); in assay [18], 47.9 µM (inactive). Moreover, the EC50 in assay [12] is 92.5 µM (inactive); in assay [15], 3.78 µM (active). The AC50 was 35.6 µM (active) in [14], 5.4 µM (active) in assay [17], 26.5 µM (active) in [19] and 2.73 µM (active) in [20].

`CCCCCOC(=O)C(C)c1c(C)nc(S)nc1O` (configuration not stated): the IC50 in assay [21] is 115 µM (inactive).

Take `CCCCCC/C=N/Nc1nnc(Cc2ccc(OC)c(OC)c2)c(O)n1`: in assay [22], the concentration at half-maximal activity (AC50) is 132 µM (active).
